# Several values for one entry are separate records, joined by “and”; a condition that tells them apart may be missing. Identical values can stand only once.
# Legend:
# [1] = tested on: rabbit skeletal myosin HMM; assay: In vitro motility assay of actin thin filaments over myosin HMM; type: biochemical
# Source text: In vitro motility assay a classic method to determine the sliding velocity of actin thin filaments over immobilized myosin in the presence of ATP (Kron et al., 1991). The assay involves the immobilization of myosin either in thick filament assembly or through individual myosin molecule on a nitrocellulose or dichlorodimethylsilane treated coverslip. Fluorescently labelled actin thin filament is allowed to slide across the bound myosin molecule upon addition of ATP. Sliding of actin over myosin treated with myosin S2 binding proteins would establish their effect over acto-myosin interaction and overall force produced. Myosin heavy meromyosin would be enough to test the effect of stabilizer and destabilizer over the acto-myosin interaction, however to test the effect of MyBPC over myosin reconstituted in its thick filament form would be required since MyBPC binds to both light meromyosin and myosin S2. Myosin in its thick filament form will improve the binding of MyBPC to a myosin molecule rather than a single myosin molecule immobilized on a glass surface.
# Rabbit skeletal myosin is dialyzed against buffer containing 0.5 M potassium chloride and 10 mM imidazole with pH 7.0 overnight to remove the impurities. Dialyzed myosin undergoes trypsin digestion with 1 mM magnesium chloride and α-chymotrypsin, digestion was stopped after addition of phenylmethylsulfonylfluoride in methanol at room temperature. Tryptic digest of myosin is dialyzed overnight at 4° C. against buffer containing 0.04 M potassium chloride and 10 mM imidazole with pH 7.0. Dialyzed tryptic digest of myosin is centrifuged at 21000 g for 60 minutes at 4° C. to yield myosin heavy meromyosin in the supernatant. This myosin heavy meromyosin achieved has a mixture of ATP sensitive and ATP insensitive heads. To purify myosin heavy meromyosin with ATP sensitive myosin S1 heads, F actin is added at an equimolar concentration to the unpurified myosin heavy meromyosin extract along with 1 mM ATP and magnesium chloride. Low salt assay buffer (25 mM potassium chloride, 10 mM imidazole, 2 mM magnesium chloride and 10 mM dithioerythritol with pH 7.0) was used as mixing solvent for the myosin heavy meromyosin purification step. Purified myosin heavy meromyosin with ATP sensitive heads are suspended in the supernatant when unpurified myosin heavy meromyosin with F actin, ATP and magnesium chloride is centrifuged with the speed of 21000 g at 4° C. ATP insensitive heads will bind F actin irreversibly thus forming the precipitate in the centrifugation step. Purified myosin heavy meromyosin with ATP sensitive heads are ready for the in vitro motility assay.
# Rhodamine phalloidin labelling of F-actin F-actin and rhodamine phalloidin are mixed in 1:5 micro molar concentration ratio with low salt assay buffer. Rhodamine phalloidin binds in between the grooves of actin subunits of F-actin. The mixture of F-actin and rhodamine phalloidin is allowed to incubate overnight at 4° C. to allow maximal labelling of F-actin.
# Glass coverslips are coated with freshly prepared 2% dichlorodimethylsilane in chloroform. Perfusion chamber is created by two halves of glass coverslips on a clean glass slide with help of vacuum grease. The perfusion chamber is then sealed with dichlorodimethylsilane treated coverslip with two side open to allow perfusion of buffer from one end and wicking on the opposite end. First step in preparation of slide is to immobilize either purified myosin heavy meromyosin or myosin thick filaments. These purified products are diluted with low salt assay buffer to achieve a final concentration of 0.1 μM before adding them in to perfusion chamber. Myosin heavy meromyosin or myosin thick filaments are allowed to immobilize on dichloro-dimethylsilane treated coverslip for a minute. Unbound myosin is washed away by low salt assay buffer once and multiple washes with assay buffer mixed with 0.5 mg/ml bovine serum albumin (AB-BSA) blocks the unbound protein. […]
# [2] = target: T1, human cardiac myosin S2 peptide (Homo sapiens, UniProt P12883); assay: Competitive ELISA (cELISA) against polyclonal anti-S2 antibody; type: binding; conditions: curve fit of OD vs peptide concentration; read-out: binding efficiency (Kd) to human cardiac myosin S2 peptide
# T1 construct: The 19 residue peptide was chemically synthesized
# Experimental: Phosphate buffer saline (PBS) contained 0.14 M sodium chloride, 2.7 mM potassium chloride, 1.5 mM potassium phosphate monobasic, and 8.1 mM sodium phosphate dibasic with pH 7.4. Detergent buffer was made with 0.05% triton X-100 in PBS, blocking buffer was made with 3% powdered milk in detergent buffer. Assay buffer contained 100 mM potassium phosphate dibasic, 100 mM potassium phosphate monobasic, 1 M potassium chloride and 10 mM magnesium chloride with pH 7.0. Stocks of primary antibody (polyclonal antibody anti-S2), rabbit skeletal myosin, human cardiac myosin S2 peptide, stabilizer and destabilizer peptide. Secondary antibody conjugated with alkaline phosphatase was anti-guinea pig immunoglobulin G (IgG)-alkaline phosphatase (Sigma-Aldrich, catalog number A5062) produced in goat and isolated by affinity chromatography. Substrate was 5-Bromo-4-chloro-3-indolyl phosphate (BCIP) tablets dissolved in 10 ml of distilled water per tablet and 96 well microtiter plate.
# Competitive Enzyme Linked Immunosorbent Assay (cELISA) is a classical immunochemical test to validate the binding efficiency and specificity in lower molar concentrations (Yorde et al., 1976; Voller et al., 1978; Walker, J. M. 1996). In this assay the polyclonal antibody anti-S2 raised against single alpha helix of myosin S2 would be used to compete with stabilizer or destabilizer peptide to bind myosin S2 in rabbit skeletal myosin molecule as well as small human cardiac myosin S2 peptide. This cELISA, thus have two molecules polyclonal anti-S2 and stabilizer peptide which have two binding sites one on rabbit skeletal myosin and the other one being on small human cardiac myosin S2. Since both polyclonal anti-S2 and stabilizer peptide were designed against human β-cardiac myosin S2 they both would have a stronger affinity towards the smaller human β-cardiac myosin S2 peptide against the myosin S2 on rabbit skeletal myosin.
# To test the binding specificity and efficiency of stabilizer or destabilizer peptide the following setup was used. Start of the setup would be to coat the wells with rabbit skeletal myosin molecule and add appropriate amount human cardiac myosin S2 peptide that would bind the primary polyclonal anti-S2 antibody and when washed there won't be enough primary polyclonal anti-S2 antibody to bind myosin S2 of rabbit skeletal myosin adsorbed on the wells. When alkaline phosphatase conjugated secondary antibody is added on to the wells, it won't have enough or none primary polyclonal anti-S2 antibody to bind. After addition of color developing BCIP substrate to the wells it would lead to low or no color development leading to lower optical density (OD). […]
SMILES,velocity distribution of actin thin filaments (histogram) ([1]; 20 nM and 100 nM peptide) [microns/second],Average velocity of actin thin filaments ([1]; 20 nM peptide) [microns/second],Average velocity of actin thin filaments ([1]; 100 nM peptide) [microns/second],rise of motility of actin thin filaments ([1]; vs control) [%],Kd [2]
CSCC[C@H](NC(=O)[C@H](CCC(=O)O)NC(=O)[C@H](CCCNC(=N)N)NC(=O)[C@H](CCC(=O)O)NC(=O)[C@H](CC(=O)O)NC(=O)[C@H](CCC(=O)O)NC(=O)[C@H](CC(C)C)NC(=O)[C@H](CCCNC(=N)N)NC(=O)[C@H](CCC(=O)O)NC(=O)[C@H](CC(N)=O)NC(=O)[C@H](CCSC)NC(=O)[C@@H](N)CCC(=O)O)C(=O)N[C@@H](CCCCN)C(=O)N[C@@H](C)C(=O)N[C@@H](CCC(=O)O)C(=O)N[C@@H](CC(C)C)C(=O)N[C@H](C(=O)N[C@@H](C)C(=O)N[C@@H](CCCCN)C(=O)O)[C@@H](C)O [Destabilizer],~8.0,8.22±0.254,8.39±0.397,18,6 nM and 1 nM
C[C@H](NC(=O)[C@H](CCCCN)NC(=O)[C@H](Cc1ccccc1)NC(=O)[C@H](CCCCN)NC(=O)[C@H](CCCCN)NC(=O)[C@H](CCCCN)NC(=O)[C@H](CCCCN)NC(=O)[C@H](CCCCN)NC(=O)[C@H](CCCCN)NC(=O)[C@H](CCCCN)NC(=O)[C@@H](N)CCCCN)C(=O)N[C@@H](CCCCN)C(=O)N[C@@H](CCCCN)C(=O)N[C@@H](CCCCN)C(=O)N[C@@H](CCCCN)C(=O)N[C@@H](CCCCN)C(=O)N[C@@H](CCCCN)C(=O)O [Stabilizer],,6.18±0.28,6.21±0.14,,1 nM
